Measurements as given in patent US20240190841A1, “MODULATORS OF BCL6 PROTEOLYSIS AND ASSOCIATED METHODS OF USE” (Arvinas Operations, Inc., priority 2022, published 2024).

molecular target: T1, BCL6 (Homo sapiens, UniProt P41182); assay: Immunofluorescence high content imaging of BCL6 degradation in T47D cells; assay type: cell-based; conditions: T47D breast cancer epithelial cells, 3 days incubation
T1 construct: endogenous in cells; host or cells: T47D breast cancer epithelial cells
Method in brief: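 T47D breast cancer cells treated 3 days at 37 °C with an 11-point 3-fold dilution series (top final 0.1 or 1 μM). Fixed with 4% PFA, Triton-permeabilised, stained with anti-BCL6 rabbit antibody plus Alexa-488 secondary, CellMask and Hoechst; imaged at 10×, 4 fields/well.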

DC50, < 10 nM:
CNC(=O)COc1cc2cc(Nc3nc(N4CCN(C(=O)CC5(O)CCN(c6ccc7c(c6F)CN(C6CCC(=O)NC6=O)C7=O)CC5)CC4)ncc3Cl)ccc2n(C(C)C)c1=O (stereo not shown) [Compound 40, 2-{[6-({5-chloro-2-[4-(2-{1-[2-(2,6-dioxopiperidin-3-yl)-4-fluoro-1-oxo-3H-isoindol-5-yl]-4-hydroxypiperidin-4-yl}acetyl)piperazin-1-yl]pyrimidin-4-yl}amino)-1-isopropyl-2-oxoquinolin-3-yl]oxy}-N-methylacetamide]
CNC(=O)COc1cc2cc(Nc3nc(N4CCC(O)(CC(=O)N5CCN(c6ccc7c(c6F)CN(C6CCC(=O)NC6=O)C7=O)CC5)CC4)ncc3Cl)ccc2n(C(C)C)c1=O (stereo not shown) [Compound 41, 2-{[6-({5-chloro-2-[4-(2-{4-[2-(2,6-dioxopiperidin-3-yl)-4-fluoro-1-oxo-2,3-dihydro-1H-isoindol-5-yl]piperazin-1-yl}-2-oxoethyl)-4-hydroxypiperidin-1-yl]pyrimidin-4-yl}amino)-2-oxo-1-(propan-2-yl)-1,2-dihydroquinolin-3-yl]oxy}-N-methylacetamide]
CNC(=O)COc1cc2cc(Nc3nc(N4CCC(CN5CCC(N6CCN(c7ccc8c(c7F)CN(C7CCC(=O)NC7=O)C8=O)CC6)C(F)(F)C5)CC4)ncc3Cl)ccc2n(C(C)C)c1=O (stereo not shown) [Compound 42, 2-({6-[(5-chloro-2-{4-[(4-{4-[2-(2,6-dioxopiperidin-3-yl)-4-fluoro-1-oxo-3H-isoindol-5-yl]piperazin-1-yl}-3,3-difluoropiperidin-1-yl)methyl]piperidin-1-yl}pyrimidin-4-yl)amino]-1-isopropyl-2-oxoquinolin-3-yl}oxy)-N-methylacetamide]
CNC(=O)COc1cc2cc(Nc3nc(N4CCC(CN5CCC(N6CCC(c7ccc8c(c7F)CN(C7CCC(=O)NC7=O)C8=O)CC6)C(F)(F)C5)CC4)ncc3Cl)ccc2n(C(C)C)c1=O (stereo not shown) [Compound 43, 2-{[6-({5-chloro-2-[4-({4-[2-(2,6-dioxopiperidin-3-yl)-4-fluoro-1-oxo-2,3-dihydro-1H-isoindol-5-yl]-3′,3′-difluoro-[1,4′-bipiperidin]-1′-yl}methyl)piperidin-1-yl]pyrimidin-4-yl}amino)-2-oxo-1-(propan-2-yl)-1,2-dihydroquinolin-3-yl]oxy}-N-methylacetamide]
CNC(=O)COc1cc2cc(Nc3nc(N4CCC(CN5CCC(C6CCN(c7ccc8c(c7F)CN(C7CCC(=O)NC7=O)C8=O)CC6)C(F)C5)CC4)ncc3Cl)ccc2n(C(C)C)c1=O (stereo not shown) [Compound 44, 2-{[6-({5-chloro-2-[4-({1′-[2-(2,6-dioxopiperidin-3-yl)-4-fluoro-1-oxo-2,3-dihydro-1H-isoindol-5-yl]-3-fluoro-[4,4′-bipiperidin]-1-yl}methyl)piperidin-1-yl]pyrimidin-4-yl}amino)-2-oxo-1-(propan-2-yl)-1,2-dihydroquinolin-3-yl]oxy}-N-methylacetamide]

Dmax, ≥ 70%:
CNC(=O)COc1cc2cc(Nc3nc(N4CCN(C(=O)CC5(O)CCN(c6ccc7c(c6F)CN(C6CCC(=O)NC6=O)C7=O)CC5)CC4)ncc3Cl)ccc2n(C(C)C)c1=O (stereo not shown) [Compound 40, 2-{[6-({5-chloro-2-[4-(2-{1-[2-(2,6-dioxopiperidin-3-yl)-4-fluoro-1-oxo-3H-isoindol-5-yl]-4-hydroxypiperidin-4-yl}acetyl)piperazin-1-yl]pyrimidin-4-yl}amino)-1-isopropyl-2-oxoquinolin-3-yl]oxy}-N-methylacetamide]
CNC(=O)COc1cc2cc(Nc3nc(N4CCC(O)(CC(=O)N5CCN(c6ccc7c(c6F)CN(C6CCC(=O)NC6=O)C7=O)CC5)CC4)ncc3Cl)ccc2n(C(C)C)c1=O (stereo not shown) [Compound 41, 2-{[6-({5-chloro-2-[4-(2-{4-[2-(2,6-dioxopiperidin-3-yl)-4-fluoro-1-oxo-2,3-dihydro-1H-isoindol-5-yl]piperazin-1-yl}-2-oxoethyl)-4-hydroxypiperidin-1-yl]pyrimidin-4-yl}amino)-2-oxo-1-(propan-2-yl)-1,2-dihydroquinolin-3-yl]oxy}-N-methylacetamide]

Dmax, 50 to 70%:
CNC(=O)COc1cc2cc(Nc3nc(N4CCC(CN5CCC(N6CCN(c7ccc8c(c7F)CN(C7CCC(=O)NC7=O)C8=O)CC6)C(F)(F)C5)CC4)ncc3Cl)ccc2n(C(C)C)c1=O (stereo not shown) [Compound 42, 2-({6-[(5-chloro-2-{4-[(4-{4-[2-(2,6-dioxopiperidin-3-yl)-4-fluoro-1-oxo-3H-isoindol-5-yl]piperazin-1-yl}-3,3-difluoropiperidin-1-yl)methyl]piperidin-1-yl}pyrimidin-4-yl)amino]-1-isopropyl-2-oxoquinolin-3-yl}oxy)-N-methylacetamide]
CNC(=O)COc1cc2cc(Nc3nc(N4CCC(CN5CCC(N6CCC(c7ccc8c(c7F)CN(C7CCC(=O)NC7=O)C8=O)CC6)C(F)(F)C5)CC4)ncc3Cl)ccc2n(C(C)C)c1=O (stereo not shown) [Compound 43, 2-{[6-({5-chloro-2-[4-({4-[2-(2,6-dioxopiperidin-3-yl)-4-fluoro-1-oxo-2,3-dihydro-1H-isoindol-5-yl]-3′,3′-difluoro-[1,4′-bipiperidin]-1′-yl}methyl)piperidin-1-yl]pyrimidin-4-yl}amino)-2-oxo-1-(propan-2-yl)-1,2-dihydroquinolin-3-yl]oxy}-N-methylacetamide]
CNC(=O)COc1cc2cc(Nc3nc(N4CCC(CN5CCC(C6CCN(c7ccc8c(c7F)CN(C7CCC(=O)NC7=O)C8=O)CC6)C(F)C5)CC4)ncc3Cl)ccc2n(C(C)C)c1=O (stereo not shown) [Compound 44, 2-{[6-({5-chloro-2-[4-({1′-[2-(2,6-dioxopiperidin-3-yl)-4-fluoro-1-oxo-2,3-dihydro-1H-isoindol-5-yl]-3-fluoro-[4,4′-bipiperidin]-1-yl}methyl)piperidin-1-yl]pyrimidin-4-yl}amino)-2-oxo-1-(propan-2-yl)-1,2-dihydroquinolin-3-yl]oxy}-N-methylacetamide]
